According to patent publication US9771369B2, “Compounds and methods for kinase modulation, and indications therefor” (Plexxikon Inc., priority 2014, dated 2017):
pIC50: −log10 of the molar value.

Columns and labels:
[1] = test system: BaF3-FL KIT D816V or BaF3-FL KIT V560G/D816V cell line; experiment: Cell-based assays of c-Kit mutant kinase activity (cell proliferation, ATPlite); settings: at least one of the c-kit cell assays of Example 7
Outline: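 BaF3 cells dependent on transfected full-length human KIT D816V or V560G/D816V (pCI-Neo, CMV promoter) were seeded at 1×10^4 cells/well and exposed to 8-point 1:3 dilutions from 10 μM top (0.2% DMSO) for three days at 37° C. ATPlite luminescence gave cell number; IC50 from concentration-response.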

c-kit mutant D816V = c-kit mutant D816V (Homo sapiens (Human), UniProt P10721, D816V/DEL694-753); experiment: c-Kit mutant D816V biochemical assay (AlphaScreen kinase activity)
Outline: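 Recombinant His-tagged c-Kit D816V kinase domain (residues 551-934, insert 694-753 deleted, E. coli-expressed) phosphorylating 30 nM biotin-(E4Y)10 with 10 μM ATP, HEPES pH 7.2, Mg/Mn, 5% DMSO; 30 min, room temperature. Phosphorylation detected by AlphaScreen (streptavidin donor/PY30 acceptor beads); IC50 from 8-point 1:3 series.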

c-kit mutant D816V, sequence (P10721 other isoform, or with tags, fused parts or gaps D816V/del 694-753): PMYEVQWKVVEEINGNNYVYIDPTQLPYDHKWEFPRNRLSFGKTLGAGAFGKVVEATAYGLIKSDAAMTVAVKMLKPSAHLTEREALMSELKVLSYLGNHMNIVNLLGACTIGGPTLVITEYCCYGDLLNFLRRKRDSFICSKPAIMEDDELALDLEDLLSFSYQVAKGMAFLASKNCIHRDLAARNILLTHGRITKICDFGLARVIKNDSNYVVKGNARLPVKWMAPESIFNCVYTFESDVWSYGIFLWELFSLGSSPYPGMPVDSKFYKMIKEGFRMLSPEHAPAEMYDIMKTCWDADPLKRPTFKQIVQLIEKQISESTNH

Row | Structure (SMILES) | pIC50 [1] | IC50 (c-kit mutant D816V) [µM]
1 | COc1ccc(-c2[nH]c(C3(C)CCN(c4ncnc5[nH]c(-c6cnn(C(F)F)c6)cc45)CC3)nc2C)cc1 [P-3153, 6-[1-(difluoromethyl)pyrazol-4-yl]-4-[4-[5-(4-methoxyphenyl)-4-methyl-1H-imidazol-2-yl]-4-methyl-1-piperidyl]-7H-pyrrolo[2,3-d]pyrimidine] | > 5.00 | 0.0001 to 1
2 | COc1ccc(-c2[nH]c(C3(C)CCN(c4ncnc5[nH]c(-c6cnn(C(F)F)c6)cc45)CC3)nc2C)cc1C [P-3154, 6-[1-(difluoromethyl)pyrazol-4-yl]-4-[4-[5-(4-methoxy-3-methyl-phenyl)-4-methyl-1H-imidazol-2-yl]-4-methyl-1-piperidyl]-7H-pyrrolo[2,3-d]pyrimidine] | > 5.00 | 0.0001 to 1
3 | Cc1nc(C2(C)CCN(c3ncnc4[nH]c(-c5cnn(C(F)F)c5)cc34)CC2)[nH]c1-c1ccc2c(c1)OCO2 [P-3155, 4-[4-[5-(1,3-benzodioxol-5-yl)-4-methyl-1H-imidazol-2-yl]-4-methyl-1-piperidyl]-6-[1-(difluoromethyl)pyrazol-4-yl]-7H-pyrrolo[2,3-d]pyrimidine] | > 5.00 | 0.0001 to 1
4 | COc1ccc(-c2[nH]c(C3(C)CCN(c4ncnc5[nH]c(-c6ccc(OC)nc6)cc45)CC3)nc2C)cc1 [P-3156, 4-[4-[5-(4-methoxyphenyl)-4-methyl-1H-imidazol-2-yl]-4-methyl-1-piperidyl]-6-(6-methoxy-3-pyridyl)-7H-pyrrolo[2,3-d]pyrimidine] | > 5.00 | 0.0001 to 1
5 | COc1ccc(-c2cc3c(N4CCC(C)(c5nc(C)c(-c6ccc(OC)c(C)c6)[nH]5)CC4)ncnc3[nH]2)cn1 [P-3157, 4-[4-[5-(4-methoxy-3-methyl-phenyl)-4-methyl-1H-imidazol-2-yl]-4-methyl-1-piperidyl]-6-(6-methoxy-3-pyridyl)-7H-pyrrolo[2,3-d]pyrimidine] | > 5.00 | 0.0001 to 1
6 | COc1ccc(-c2cc3c(N4CCC(C)(c5nc(C)c(-c6ccc7c(c6)OCO7)[nH]5)CC4)ncnc3[nH]2)cn1 [P-3158, 4-[4-[5-(1,3-benzodioxol-5-yl)-4-methyl-1H-imidazol-2-yl]-4-methyl-1-piperidyl]-6-(6-methoxy-3-pyridyl)-7H-pyrrolo[2,3-d]pyrimidine] | > 5.00 | 0.0001 to 1
7 | Cc1nc(C2(C)CCN(c3ncnc4[nH]c(-c5ccc(C#N)cc5)cc34)CC2)[nH]c1-c1ccc2c(c1)OCO2 [P-3159, 4-[4-[4-[5-(1,3-benzodioxol-5-yl)-4-methyl-1H-imidazol-2-yl]-4-methyl-1-piperidyl]-7H-pyrrolo[2,3-d]pyrimidin-6-yl]benzonitrile] | > 5.00 | 0.0001 to 1
8 | CCOc1ccc(-c2[nH]c(C3(C)CCN(c4ncnc5[nH]c(-c6ccc(C#N)cc6)cc45)CC3)nc2C)cc1C [P-3160, 4-[4-[4-[5-(4-ethoxy-3-methyl-phenyl)-4-methyl-1H-imidazol-2-yl]-4-methyl-1-piperidyl]-7H-pyrrolo[2,3-d]pyrimidin-6-yl]benzonitrile] | > 5.00 | 0.0001 to 1
9 | CCOc1ccc(-c2[nH]c(C3(C)CCN(c4ncnc5[nH]c(-c6ccc(C#N)cc6)cc45)CC3)nc2C)cc1 [P-3161, 4-[4-[4-[5-(4-ethoxyphenyl)-4-methyl-1H-imidazol-2-yl]-4-methyl-1-piperidyl]-7H-pyrrolo[2,3-d]pyrimidin-6-yl]benzonitrile] | > 5.00 | 0.0001 to 1
10 | Cc1nc(C2CCN(c3ncnc4[nH]c(-c5ccc(C#N)cc5)cc34)CC2)[nH]c1-c1ccc(C(F)F)cc1 [P-3162, 4-[4-[4-[5-[4-(difluoromethyl)phenyl]-4-methyl-1H-imidazol-2-yl]-1-piperidyl]-7H-pyrrolo[2,3-d]pyrimidin-6-yl]benzonitrile] | > 5.00 | 0.0001 to 1
11 | COc1ccc(-c2[nH]c(C3(C)CCN(c4ncnc5[nH]c(-c6ccc(C#N)cc6)cc45)CC3)nc2C)cc1F [P-3163, 4-[4-[4-[5-(3-fluoro-4-methoxy-phenyl)-4-methyl-1H-imidazol-2-yl]-4-methyl-1-piperidyl]-7H-pyrrolo[2,3-d]pyrimidin-6-yl]benzonitrile] | > 5.00 | 0.0001 to 1
12 | Cc1nc(C2(C)CCN(c3ncnc4[nH]c(-c5ccc(C#N)cc5)cc34)CC2)[nH]c1-c1ccc(C(F)F)cc1 [P-3164, 4-[4-[4-[5-[4-(difluoromethyl)phenyl]-4-methyl-1H-imidazol-2-yl]-4-methyl-1-piperidyl]-7H-pyrrolo[2,3-d]pyrimidin-6-yl]benzonitrile] | > 5.00 | 0.0001 to 1
13 | Cc1cc2c(N3CCC(C)(c4nc(C)c(-c5ccc(C(F)(F)F)cc5)[nH]4)CC3)ncnc2[nH]1 [P-3165, 6-methyl-4-[4-methyl-4-[4-methyl-5-[4-(trifluoromethyl)phenyl]-1H-imidazol-2-yl]-1-piperidyl]-7H-pyrrolo[2,3-d]pyrimidine] | > 5.00 | 0.0001 to 1
14 | COc1cccc(-c2[nH]c(C3(C)CCN(c4ncnc5[nH]c(C)cc45)CC3)nc2C)c1 [P-3166, 4-[4-[5-(3-methoxyphenyl)-4-methyl-1H-imidazol-2-yl]-4-methyl-1-piperidyl]-6-methyl-7H-pyrrolo[2,3-d]pyrimidine] | > 5.00 | 0.0001 to 1
15 | COc1cccc(-c2[nH]c(C3(C)CCN(c4ncnc5[nH]c(-c6ccc(C#N)cc6)cc45)CC3)nc2C)c1 [P-3167, 4-[4-[4-[5-(3-methoxyphenyl)-4-methyl-1H-imidazol-2-yl]-4-methyl-1-piperidyl]-7H-pyrrolo[2,3-d]pyrimidin-6-yl]benzonitrile] | > 5.00 | 0.0001 to 1
16 | COc1cccc(-c2[nH]c(C3(C)CCN(c4ncnc5[nH]c(-c6cnn(C(F)F)c6)cc45)CC3)nc2C)c1 [P-3168, 6-[1-(difluoromethyl)pyrazol-4-yl]-4-[4-[5-(3-methoxyphenyl)-4-methyl-1H-imidazol-2-yl]-4-methyl-1-piperidyl]-7H-pyrrolo[2,3-d]pyrimidine] | > 5.00 | 0.0001 to 1
17 | COc1cccc(-c2[nH]c(C3(C)CCN(c4ncnc5[nH]c(-c6ccc(OC)nc6)cc45)CC3)nc2C)c1 [P-3169, 4-[4-[5-(3-methoxyphenyl)-4-methyl-1H-imidazol-2-yl]-4-methyl-1-piperidyl]-6-(6-methoxy-3-pyridyl)-7H-pyrrolo[2,3-d]pyrimidine] | > 5.00 | 0.0001 to 1
18 | CCOc1ccc(-c2[nH]c(C3(C)CCN(c4ncnc5[nH]c(-c6cnn(C(F)F)c6)cc45)CC3)nc2C)cc1 [P-3170, 6-[1-(difluoromethyl)pyrazol-4-yl]-4-[4-[5-(4-ethoxyphenyl)-4-methyl-1H-imidazol-2-yl]-4-methyl-1-piperidyl]-7H-pyrrolo[2,3-d]pyrimidine] | > 5.00 | 0.0001 to 1
19 | Fc1ccc(-c2cc3c(N4CCC(c5nnc(-c6cccc(OC(F)F)c6)[nH]5)CC4)ncnc3[nH]2)cc1 [P-3204, 4-[4-[5-[3-(difluoromethoxy)phenyl]-4H-1,2,4-triazol-3-yl]-1-piperidyl]-6-(4-fluorophenyl)-7H-pyrrolo[2,3-d]pyrimidine] | > 5.00 | 0.0001 to 1
20 | COc1cc(-c2cc3c(N4CCC(c5nnc(-c6ccc(F)cc6)[nH]5)CC4)ncnc3[nH]2)ccn1 [P-3205, 4-[4-[5-(4-fluorophenyl)-4H-1,2,4-triazol-3-yl]-1-piperidyl]-6-(2-methoxy-4-pyridyl)-7H-pyrrolo[2,3-d]pyrimidine] | > 5.00 | 1 to 10
